Converted amounts (≈) assume the structure as drawn. Square brackets hold non-standard residues; d marks the D form. Peptide text beside a SMILES is read from it. Nspe = C[C@H](NCC(=O)O)c1ccccc1; Nlys = NCCCCNCC(=O)O
How the values were obtained:
erythrocytes = assay: Hemolytic activity (HD10/HD50); format: cell-based
Source text: Table 1 Characteristics of antimicrobial peptoids, screened for activity against B. subtilis and E. coli bacterial strains. | column: HD10 / HD50

NIH 3T3 cells = assay: Metabolic activity, MTS assay; format: cell-based, mouse
Procedure: NIH 3T3 mouse fibroblast cells were cultured in complete Dulbecco’s Modified Eagle’s Media. A peptoid solution plate (100 µL per well) was prepared by serial dilution of aqueous peptoid stock solutions in Hank’s balanced salt solution. A day-old cell monolayer was washed thoroughly with Hank’s balanced salt solution and replenished with 100 µL Hank’s balanced salt solution per well. Peptoid solutions were transferred onto the day-old cell monolayers, which contained approximately 5000 cells per well. […] The average of six replicate trials is reported.

E. coli ATCC 35218 = format: cell-based
Procedure: MICs against B. subtilis and E. coli screening bacterial strains were determined using serial dilution in 96-well microtiter plates in accordance with CLSI M7-A6 protocols. Briefly, peptoid solution in cation-adjusted Mueller-Hinton broth was prepared by 2:1 serial dilution with a total volume of 50 µL per well. In experimental wells, 50 µL of bacterial inoculums (1 x 10^6 CFU/mL) were added to the peptoid solutions. Positive controls consisted of 50 µL inoculums added to 50 µL cation-adjusted Mueller-Hinton broth containing no peptoid, while negative controls contained only cation-adjusted Mueller-Hinton broth. […] Experiments were reproducible among three independent replicates, each consisting of two parallel trials.

P. aeruginosa 9 (MDR) = assay: microbe, parasite or virus in culture; conditions: 9 (MDR)
Procedure: (§1) The MICs of test agents were measured using a modified broth micro-dilution method in Difco Mueller Hinton medium, on a panel of bacterial pathogens that were both susceptible and resistant to common antibiotics (S1 File). Briefly, serial dilutions were performed in 0.01% acetic acid containing 0.2% bovine serum albumin at 10-fold the desired final concentration. Ten μL of the 10-fold concentrated test reagents were added to each well of a 96-well polypropylene microtitre plate containing 90 μL of Mueller Hinton media per well. Bacteria were added to the plate from an overnight culture at a final concentration of 2–7 x 10^5 CFU/mL and incubated overnight at 37°C. The MIC is defined as the concentration at which no growth was observed.
(§2) Screening of peptoid antimicrobial activity against a panel of multidrug resistant superbugs was done according to the protocol described in the manuscript. The bacterial strains used in this panel included; P. aeruginosa PAO1 strain H103 [1], P. maltophilia ATCC#13637, S. aureus ATCC#25923 [1], E. faecalis ATCC#29212 [2], and E. cloacae 218R, constitutively expressing Class C chromosomal β-lactamase, were from the Hancock lab strains collection. An MRSA clinical isolate was kindly provided by Anthony Chow (Vancouver General Hospital, Vancouver, Canada). Two Klebsiella pneumoniae and two E. coli clinical isolates expressing extended spectrum β-lactamases (ESBL) were kindly provided by George Zhanel (Health Sciences Centre, Winnipeg, Canada). Vancomycin-resistant clinical isolates of Enterococcus faecalis and E. faecium were obtained from Ana M. Paccagnella (BC Centre for Disease Control, Vancouver, Canada). Three clinical isolates (#9, #198 and #213) of multi-drug resistant P. aeruginosa, were kindly provided by Carlos Kiffer (University of São Paulo, Brazil). […] Three P. aeruginosa clinical isolates of the Liverpool epidemic strain (LES) (H1027, H1030 and LES400) were all kindly provided by Craig Winstanley (University of Liverpool, UK). […] All tested bacterial strains were categorized as biohazard level 2 pathogens.

E. faecalis F43559 (VRE) = assay: microbe, parasite or virus in culture; conditions: F43559 (VRE)
Procedure: as §1, §2

[1] = tested on: K. pneumonia 63575 (ESBL); assay: microbe, parasite or virus in culture
Procedure: as §1, §2

P. aeruginosa 213 (MDR) = assay: microbe, parasite or virus in culture; conditions: 213 (MDR)
Procedure: as §1, §2

[2] = tested on: P. aeruginosa LES400 (MDR); assay: microbe, parasite or virus in culture; conditions: LES400 (MDR)
Procedure: as §1, §2

S. aureus ATCC25923 = assay: microbe, parasite or virus in culture; conditions: ATCC25923
Procedure: as §1, §2

[3] = tested on: K. pneumonia 61962 (ESBL); assay: microbe, parasite or virus in culture
Procedure: as §1, §2

E. coli 63103 (ESBL) = assay: microbe, parasite or virus in culture; conditions: 63103 (ESBL)
Procedure: as §1, §2

[4] = tested on: E. cloacae 218R Class C β-lactamase; assay: microbe, parasite or virus in culture; conditions: 218R Class C β-lactamase
Procedure: as §1, §2

S. aureus C623 (MRSA) = assay: microbe, parasite or virus in culture; conditions: C623
Procedure: as §1, §2

E. faecium T62764 (VRE) = assay: microbe, parasite or virus in culture; conditions: T62764 (VRE)
Procedure: as §1, §2

P. aeruginosa 198 (MDR) = assay: microbe, parasite or virus in culture; conditions: 198 (MDR)
Procedure: as §1, §2

[5] = tested on: P. aeruginosa H1027 (MDR); assay: microbe, parasite or virus in culture; conditions: H1027 (MDR)
Procedure: as §1, §2

P. maltophilia ATCC13637 = assay: microbe, parasite or virus in culture; conditions: ATCC13637
Procedure: as §1, §2

E. faecalis W61950 (VRE) = assay: microbe, parasite or virus in culture; conditions: W61950 (VRE)
Procedure: as §1, §2

E. faecalis ATCC29212 = assay: microbe, parasite or virus in culture; conditions: ATCC29212
Procedure: as §1, §2

E. faecium mic80 (VRE) = assay: microbe, parasite or virus in culture; conditions: mic80 (VRE)
Procedure: as §1, §2

E. coli 64771 (ESBL) = assay: microbe, parasite or virus in culture; conditions: 64771 (ESBL)
Procedure: as §1, §2

[6] = tested on: P. aeruginosa H103 (wild type); assay: microbe, parasite or virus in culture; conditions: H103 (wild type)
Procedure: as §1, §2

SMILES: C[C@H](NCC(=O)N(CCCCN)CC(=O)N(CC(=O)N(CCCCN)CC(=O)N(CCCCN)CC(=O)N(CCCCN)CC(=O)N(CC(=O)N(CCCCN)CC(=O)N(CC(=O)N(CCCCN)CC(=O)N(CCCCN)CC(=O)N(CC(=O)N(CC(=O)N(CCCCN)CC(=O)N(CC(N)=O)[C@@H](C)c1ccccc1)[C@@H](C)c1ccccc1)[C@@H](C)c1ccccc1)[C@@H](C)c1ccccc1)[C@@H](C)c1ccccc1)[C@@H](C)c1ccccc1)c1ccccc1 [1B15mer-NLys4,6,10, H-(Nspe-NLys)2-NLys2-(Nspe-NLys)2-NLys-Nspe2-NLys-Nspe-NH2] (H-[Nspe][Nlys][Nspe][Nlys][Nlys][Nlys][Nspe][Nlys][Nspe][Nlys][Nlys][Nspe][Nspe][Nlys][Nspe]-NH2)
- HD10 (hemolytic activity) (erythrocytes): >200 / >200
- HD50 (hemolytic activity) (erythrocytes): >200 / >200
- ID50 (inhibitory dose, metabolic activity) (NIH 3T3 cells): 40 µM

SMILES: C[C@@H](c1ccccc1)N(CC(N)=O)C(=O)CN(CCCCN)C(=O)CN(C(=O)CN(C(=O)CN(CCCCN)C(=O)CN(C(=O)CN(C(=O)CN(CCCCN)C(=O)CN(C(=O)CN(C(=O)CNCCCCN)[C@@H](C)c1ccccc1)[C@@H](C)c1ccccc1)[C@@H](C)c1ccccc1)[C@@H](C)c1ccccc1)[C@@H](C)c1ccccc1)[C@@H](C)c1ccccc1 [Peptoid 1_11mer, H-(NLys-Nspe-Nspe)3-NLys-Nspe-NH2] (H-[Nlys][Nspe][Nspe][Nlys][Nspe][Nspe][Nlys][Nspe][Nspe][Nlys][Nspe]-NH2)
- HD10 (hemolytic activity) (erythrocytes): 103
- HD50 (hemolytic activity) (erythrocytes): > 200
- ID50 (inhibitory dose, metabolic activity) (NIH 3T3 cells): 11 µM
- MIC E. coli (E. coli ATCC 35218): 6.3 µM (≈ 10.4 µg/mL)

SMILES: C[C@H](NCC(=O)N(CCCCN)CC(=O)N(CC(=O)N(CCCCN)CC(=O)N(CCCCN)CC(=O)N(CC(=O)N(CC(=O)N(CCCCN)CC(=O)N(CC(=O)N(CCCCN)CC(=O)N(CCCCN)CC(=O)N(CC(N)=O)[C@@H](C)c1ccccc1)[C@@H](C)c1ccccc1)[C@@H](C)c1ccccc1)[C@@H](C)c1ccccc1)[C@@H](C)c1ccccc1)c1ccccc1 [1B-NLys4,10, H-(Nspe-NLys-Nspe-NLys-NLys-Nspe)2-NH2] (H-[Nspe][Nlys][Nspe][Nlys][Nlys][Nspe][Nspe][Nlys][Nspe][Nlys][Nlys][Nspe]-NH2)
- HD10 (hemolytic activity) (erythrocytes): >200 / >200
- HD50 (hemolytic activity) (erythrocytes): >200 / >200
- MIC (P. aeruginosa 9 (MDR)): 128 µg/mL (≈ 73 µM)
- MIC (E. faecalis F43559 (VRE)): 256 µg/mL (≈ 146 µM)
- MIC [1]: 128 µg/mL (≈ 73 µM)
- MIC (P. aeruginosa 213 (MDR)): 16 µg/mL (≈ 9.13 µM)
- MIC [2]: 16 µg/mL (≈ 9.13 µM)
- MIC (S. aureus ATCC25923): 256 µg/mL (≈ 146 µM)
- MIC [3]: 256 µg/mL (≈ 146 µM)
- MIC (E. coli 63103 (ESBL)): 128 µg/mL (≈ 73 µM)
- MIC [4]: 32 µg/mL (≈ 18.3 µM)
- MIC (S. aureus C623 (MRSA)): 256 µg/mL (≈ 146 µM)
- MIC (E. faecium T62764 (VRE)): 16 µg/mL (≈ 9.13 µM)
- MIC (P. aeruginosa 198 (MDR)): 32 µg/mL (≈ 18.3 µM)
- MIC [5]: 0.25 µg/mL (≈ 0.143 µM)
- MIC (P. maltophilia ATCC13637): 0.25 µg/mL (≈ 0.143 µM)
- MIC (E. faecalis W61950 (VRE)): 256 µg/mL (≈ 146 µM)
- MIC (E. faecalis ATCC29212): 256 µg/mL (≈ 146 µM)
- MIC (E. faecium mic80 (VRE)): 32 µg/mL (≈ 18.3 µM)
- MIC (E. coli 64771 (ESBL)): 32 µg/mL (≈ 18.3 µM)
- MIC [6]: 4 µg/mL (≈ 2.28 µM)
- ID50 (inhibitory dose, metabolic activity) (NIH 3T3 cells): 83 µM
- MIC E. coli (E. coli ATCC 35218): 50 µM (≈ 87.7 µg/mL)

Reference: article PMC4744035, “In Vivo, In Vitro, and In Silico Characterization of Peptoids as Antimicrobial Agents” (PLoS ONE, 2016)
